The test system of experiment [1] is MDA-MB 231 cells. As to the kind of experiment: phage binding to breast carcinoma cells. The experiment is classed as cell-based. Particulars: compared to myoblasts and fibroblasts; p<0.05. The method, then: (§1) Supplementary file pone.0010445.s001.tif: Figure S1 Phage selection and validation on RMS cells in vivo and in vitro. (A) Biopanning on RD cells in vitro after negative selection on myoblasts (panning I) and (B) fibroblasts (panning II). Enrichment was calculated over non-recombinant phage T7. (C) In vivo selection in Rh4 xenografts. Phages from in vitro selection before enrichment were pooled and used for in vivo selection in Rh4 xenografts. Phages were injected in the tail vein and after 10 min circulation unbound phages were washed by perfusion. Phage binding to tumors and control organs was calculated over non-recombinant phage T7. (D) RMS-P3 and RMS-P6 phage distribution in Rh4 xenografts. Homing of phages in mouse xenografts bearing Rh4 tumors was determined and compared to control organs. Binding was normalized over phage T7 and tissue weight. Mean values of three independent experiments are shown. Numerical values for tumor to organ ratios are indicated above the bars. (E) Quantification of binding of RMS-P3 phage to a panel of tumor cell lines: RMS (RD, Rh30, Rh4), breast tumor (MDA-MB 231), glioblastoma (U87MG), melanoma (A365); and normal myoblasts (SkMC-c) and fibroblast cells (MRC-5). Mean values ± SD of three independent experiments are depicted. (0.55 MB TIF) Click here for additional data file.

Experiment [2] relates to U87MG cells. As to the kind of experiment: phage binding to glioblastoma cells. Format: cell-based. The following applies: compared to myoblasts and fibroblasts; p<0.05. As for the experimental part: as §1
The subject of experiment [3] is A365 cells. Kind of experiment: phage binding to melanoma cells. Format: cell-based. The following applies: compared to myoblasts and fibroblasts; p<0.05. As for the experimental part:
as §1

The subject of experiment [4] is RD xenograft tumors. Kind of experiment: phage homing in RD xenografts. Format: in vivo, mouse. Particulars: for phage binding to tumors versus any other organ: RD (or Rh4) xenografts, One-way ANOVA and Tukey-Kramer HSD. As for the experimental part:
Figure 1 Validation of selected phages binding on RMS cells in vivo and in vitro. (A) Quantification of binding of single phage clones to different cell lines. Six phages selected from in vitro and in vivo screenings were validated individually in binding assays to three RMS cell lines (embryonal RMS: RD; alveolar RMS: Rh30 and Rh4) as well as to normal myoblasts (SkMC-c) and fibroblast cells (MRC-5). Phage clones are ordered according to the frequency of occurrence. Binding was calculated over non-recombinant T7, depicted are mean values ± SD of three independent experiments. (B) RMS-P3 and RMS-P6 phage distribution in RD mouse xenografts. Homing of phages to tumor was compared to control organs. Binding was normalized over phage T7 and tissue weight. Mean values ± SD of four independent experiments are shown. Numerical values for tumor to organ ratios are indicated above the bars. (C) Validation of RMS-P3 peptide sequence by competition of phage binding. 10^6 RD cells were incubated for 30 min with increasing concentrations of RMS-P3 peptide ([…]) or control peptide ([…]). Then, phages (10^9 pfu) were added for 1 h. Phage binding was normalized over non-recombinant T7. Data are presented as percentage of maximal phage binding obtained in the absence of synthetic peptide. Error bars indicate mean ± SD from three independent experiments. […] TEXT PRINTED IN THE PICTURE: (B) RMS-P6: tumor: 1; muscle: 1/6; kidney: 1/8; brain: 1/28; skin: 1/12 | (B) RMS-P3: tumor: 1; muscle: 1/24; kidney: 1/15; brain: 1/12; skin: 1/10 DOUBTS OF THE COPYIST ABOUT THIS PICTURE: Panel B: the picture prints no measure for the numbers over the bars. Each tissue name was assigned from the bar fill and the order of the printed key. / RMS-P6, brain: 1/28, the last digit may be 8 or 6 (small print)
Phage (10^10 pfu) from in vitro biopannings were tail vein injected into mice bearing size-matched RMS tumors (500 mm^3) as described in [57].

The subject of experiment [5] is Rh4 xenograft tumors. Kind of experiment: phage homing in Rh4 xenografts. Format: in vivo, mouse. Particulars: aRMS (Rh4) xenograft. As for the experimental part: as §1
Experiment [6] deals with RMS cells (RD, Rh4, Rh30). As to the kind of experiment: phage binding to RMS cell lines versus normal cells. Format: cell-based. Particulars: control phage. The method, then: (§2) Figure 1 Validation of selected phages binding on RMS cells in vivo and in vitro. (A) Quantification of binding of single phage clones to different cell lines. Six phages selected from in vitro and in vivo screenings were validated individually in binding assays to three RMS cell lines (embryonal RMS: RD; alveolar RMS: Rh30 and Rh4) as well as to normal myoblasts (SkMC-c) and fibroblast cells (MRC-5). Phage clones are ordered according to the frequency of occurrence. Binding was calculated over non-recombinant T7, depicted are mean values ± SD of three independent experiments. (B) RMS-P3 and RMS-P6 phage distribution in RD mouse xenografts. Homing of phages to tumor was compared to control organs. Binding was normalized over phage T7 and tissue weight. Mean values ± SD of four independent experiments are shown. Numerical values for tumor to organ ratios are indicated above the bars. (C) Validation of RMS-P3 peptide sequence by competition of phage binding. 10^6 RD cells were incubated for 30 min with increasing concentrations of RMS-P3 peptide ([…]) or control peptide ([…]). Then, phages (10^9 pfu) were added for 1 h. Phage binding was normalized over non-recombinant T7. Data are presented as percentage of maximal phage binding obtained in the absence of synthetic peptide. Error bars indicate mean ± SD from three independent experiments. […]

Experiment [7] deals with RD cells. As to the kind of experiment: phage binding to RD cells. The experiment is classed as cell-based. Particulars: RD cells; three independent experiments. The method, then:
as §2
Figure 3 Identification of the receptor for RMS-P3. […] Phage binding was quantified over non-recombinant T7 and compared to the binding of wild type phage RMS-P3. […] After tail vein injection of both FITC-RMS-P3/RR or control peptide RMS-P3/AA and circulation of 10 min, mice were perfused, tumors and control organs were dissected and FITC-peptide distribution (green) was evaluated in cryosections under fluorescence microscopy. […] (C) Expression of proprotein convertases (PCs) measured by microarray profiling of 9 RMS cell lines and 30 RMS biopsy samples. […] Immature membrane-bound furin was detected at 103 kD, mature furin at 97 kD. […]

The subject of experiment [8] is Rh4 cells. Kind of experiment: phage binding to Rh4 cells. The experiment is classed as cell-based. The following applies: three independent experiments. The method, then:
as §2

The test system of experiment [9] is Rh30 cells. As to the kind of experiment: phage binding to Rh30 cells. The following applies: three independent experiments. Format: cell-based. As for the experimental part: as §2

Entries after “also recorded” stand apart in the source; their conditions may differ. Positions of bridges follow the written chain, without caps; N, C: chain ends. No end group written: not given here.

On to “CMGTINTRTKKC (disulfide 1-12 (inferred)) [phage RMS-P3]”, for which, in experiment [1], the “phage binding to breast carcinoma cells” value is listed as “significant binding; also recorded: very good binding”. For the same sequence, the “phage binding to glioblastoma cells” value in experiment [2] is given as “significant binding; also recorded: very good binding”. Moreover, the “phage binding to melanoma cells” value in experiment [3] is reported as “significant binding; also recorded: very good binding”. For the same sequence, the “phage binding to tumors versus any other organ” value in experiment [4] is “bound significantly better to tumors than to any other organ”. In addition, the tumor/muscle ratio in [4] (phage, eRMS (RD) xenograft) is listed as 24 fold; in experiment [5], 24 fold.

For the sequence “CSPNNTRRPNKC (disulfide 1-12 (inferred)) [phage RMS-Pctrl, phage displaying […], arose spontaneously during the in vitro screening; negative control]”, the “binding to tumor cells” value in [6] is recorded as “no binding to tumor cells”.

Consider “CMGTTNTRTKKC (disulfide 1-12 (inferred)) [RMS-P6]”, for which the “phage binding compared to non-recombinant phage T7” value in experiment [7] turned out to be 1270 fold; in experiment [8] it was 230 fold; in [9], 120 fold. In experiment [4], the “phage binding to tumors versus any other organ” value is “bound significantly better to tumors than to any other organ”.

Source of the values: PMC2862740, “Furin Targeted Drug Delivery for Treatment of Rhabdomyosarcoma in a Mouse Model” (PLoS ONE, 2010).
